Consider 13 compounds from US6753338B2, “Methods for treating hypertension, angina, and congestive heart failure using of optically pure (-) amlodipine” (Sepracor Inc., priority 1991, dated 2004).

Each structure is given as a SMILES string.

One assay has as its system K+-depolarized isolated guinea pig ileal segment. Description: Calcium antagonism, guinea pig ileum (in vitro). As to conditions: Cavia porcellus; reference agents; K+-depolarized ileal segment in Ca-free physiological salt solution, 37° C., added calcium 20 μg/ml CaCl; read-out: ED100 (inhibition of contractile response to added calcium). From the text: Calcium Antagonism, Guinea Pig Ileum (in Vitro):
For `CN1CCC(=C2c3ccccc3C=Cc3ccccc32)CC1` [cyproheptadine], the IC100 came to 0.025 µg/mL.

Take `COc1ccc([C@@H]2Sc3ccccc3N(CCN(C)C)C(=O)[C@@H]2OC(C)=O)cc1` [diltiazem]: the IC100 was 0.01 µg/mL.

Consider `CN(C)CCOC(c1ccccc1)c1ccccc1` [diphenhydramine], for which the IC100 was found to be 1 µg/mL.

For `Fc1ccc(C(c2ccc(F)cc2)N2CCN(C/C=C/c3ccccc3)CC2)cc1` [flunarizine], the IC100 was 0.1 µg/mL.

As for `COc1ccc(CN(CCN(C)C)c2ccccn2)cc1` [mepyramine], the IC100 was greater than 5 µg/mL.

As for `COc1ccc(Cc2nccc3cc(OC)c(OC)cc23)cc1OC` [papaverine], the IC100 worked out at 4 µg/mL.

`CC(CN1c2ccccc2Sc2ccccc21)N(C)C` (stereo not shown) [promethazine]: the IC100 worked out at 0.25 µg/mL.

As to `CC(C)NCC(O)COc1cccc2ccccc12` (stereo not shown) [propranolol], the IC100 was 4 µg/mL.

Still in this assay, the particulars now being: reference agents; K+-depolarized ileal segment in Ca-free physiological salt solution, 37° C., added calcium 20 μg/ml CaCl.
As for `C(=C\c1ccccc1)/CN1CCN(C(c2ccccc2)c2ccccc2)CC1` [cinnazrizine], the ED100 (inhibition of contractile response to added calcium) was determined as 1 µg/mL.

Turning to `CC(C)[N+]1(C)[C@@H]2CC[C@H]1CC(OC(=O)C(CO)c1ccccc1)C2.[Br-]` (stereo partly shown) [ipratropium bromide], the ED100 (inhibition of contractile response to added calcium) is greater than 2 µg/mL.

With `CC(COc1ccccc1)NC(C)C(O)c1ccc(O)cc1` (stereo not shown) [isoxuprine], the ED100 (inhibition of contractile response to added calcium) came to 4 µg/mL.

The subject of another assay is potassium-depolarized rat aorta.
Experiment: not given
As to conditions: in vitro; cited from earlier work.
For `CCOC(=O)C1=C(COCCN)NC(C)=C(C(=O)OC)C1c1ccccc1Cl` (single isomer, unassigned; isomer 3) [(−) isomer, 3-ethyl 5-methyl (−)-2-[2-aminoethoxy)methyl]-4-(2-chlorophenyl)-1,4-dihydro-6-methyl-3,5-pyridine dicarboxylate], the “activity relative to the racemic mixture in antagonizing calcium-induced constriction” value is recorded as “twice as active as the racemic mixture”.

A further assay concerns β-adrenergic.
Experiment: not given
As to conditions: L-form versus D-enantiomer; cited from earlier work.
Consider `CC(C)NC[C@H](O)COc1cccc2ccccc12`, for which the “potency relative to the D-enantiomer” value is 100 times.
